Data: ChEMBL document CHEMBL5512616, “pH regulators and their inhibitors in tumor microenvironment” (Eur J Med Chem, 2024)
Values after ≈ are worked out from the molar mass of the structure shown. Each block holds one compound with its values, some of them ahead of it.

What was measured:
Carbonic anhydrase 2 [1] = target: T1, Carbonic anhydrase 2 (Homo sapiens, UniProt P00918)
Carbonic anhydrase 1 = Carbonic anhydrase 1 (Homo sapiens, UniProt P00915)
Carbonic anhydrase 9 [2] = target: T2, Carbonic anhydrase 9 (Homo sapiens, UniProt Q16790)
[3] = target: T3, Monocarboxylate transporter 1 (Homo sapiens, UniProt P53985)
T3 sequence (P53985 whole entry): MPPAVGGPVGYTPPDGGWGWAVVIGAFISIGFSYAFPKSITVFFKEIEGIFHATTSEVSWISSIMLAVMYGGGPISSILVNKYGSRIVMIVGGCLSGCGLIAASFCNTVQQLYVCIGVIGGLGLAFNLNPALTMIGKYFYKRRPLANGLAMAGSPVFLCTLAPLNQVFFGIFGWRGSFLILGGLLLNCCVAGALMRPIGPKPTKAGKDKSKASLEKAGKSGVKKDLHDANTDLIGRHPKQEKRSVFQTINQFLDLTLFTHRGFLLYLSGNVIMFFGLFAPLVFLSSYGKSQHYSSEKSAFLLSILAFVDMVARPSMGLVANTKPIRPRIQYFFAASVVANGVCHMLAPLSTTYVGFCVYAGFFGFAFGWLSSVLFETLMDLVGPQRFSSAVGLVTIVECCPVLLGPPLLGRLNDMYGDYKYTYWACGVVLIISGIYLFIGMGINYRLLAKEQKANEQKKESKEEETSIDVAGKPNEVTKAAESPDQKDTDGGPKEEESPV

BT-549 = test: cells; conditions: Homo sapiens
KB = test: cells; conditions: Homo sapiens
SK-MEL = test: cells; conditions: Homo sapiens
SK-OV-3 = test: cells; conditions: Homo sapiens
Carbonic anhydrase 2 [4] = target: T1, Carbonic anhydrase 2; remark: listed apart in the source
[5] = target: T3, Monocarboxylate transporter 1; remark: listed apart in the source
[6] = target: T4, Monocarboxylate transporter 4 (Homo sapiens, UniProt O15427)
T4 sequence (O15427 whole entry): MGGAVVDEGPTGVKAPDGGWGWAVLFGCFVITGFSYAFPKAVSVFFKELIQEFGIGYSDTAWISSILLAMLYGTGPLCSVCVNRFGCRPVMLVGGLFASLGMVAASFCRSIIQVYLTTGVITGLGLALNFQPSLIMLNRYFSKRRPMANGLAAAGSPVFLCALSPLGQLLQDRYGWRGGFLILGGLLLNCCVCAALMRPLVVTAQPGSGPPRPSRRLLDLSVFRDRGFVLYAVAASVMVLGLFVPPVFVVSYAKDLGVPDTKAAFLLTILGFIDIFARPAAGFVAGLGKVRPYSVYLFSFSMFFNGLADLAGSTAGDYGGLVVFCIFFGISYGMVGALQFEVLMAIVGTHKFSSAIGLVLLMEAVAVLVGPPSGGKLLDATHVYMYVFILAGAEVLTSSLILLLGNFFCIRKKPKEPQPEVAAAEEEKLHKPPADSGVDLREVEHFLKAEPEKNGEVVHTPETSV

Carbonic anhydrase 9 [7] = target: T2, Carbonic anhydrase 9; remark: listed apart in the source
MCF7 [8] = test: cells; conditions: Homo sapiens, MCF7, 96 h
Carbonic anhydrase 9 [9] = target: T2, Carbonic anhydrase 9; remark: listed apart in the source
Carbonic anhydrase 2 [10] = target: T1, Carbonic anhydrase 2; remark: listed apart in the source
Carbonic anhydrase 9 [11] = target: T2, Carbonic anhydrase 9; remark: listed apart in the source
Carbonic anhydrase 2 [12] = target: T1, Carbonic anhydrase 2; remark: listed apart in the source
Carbonic anhydrase 2 [13] = target: T1, Carbonic anhydrase 2; remark: listed apart in the source
Carbonic anhydrase 9 [14] = target: T2, Carbonic anhydrase 9; remark: listed apart in the source
Raji = test: cells; conditions: Homo sapiens, 96 h
MCF7 [15] = test: cells; conditions: Homo sapiens
A549 = test: cells; conditions: Homo sapiens
HepG2 = test: cells; conditions: Homo sapiens
MCF7 [16] = test: cells; conditions: Homo sapiens, MCF7, 72 h
[17] = target: Sodium/hydrogen exchanger 1 (Homo sapiens, UniProt P19634)
Sodium/hydrogen exchanger 1, sequence (P19634 whole entry): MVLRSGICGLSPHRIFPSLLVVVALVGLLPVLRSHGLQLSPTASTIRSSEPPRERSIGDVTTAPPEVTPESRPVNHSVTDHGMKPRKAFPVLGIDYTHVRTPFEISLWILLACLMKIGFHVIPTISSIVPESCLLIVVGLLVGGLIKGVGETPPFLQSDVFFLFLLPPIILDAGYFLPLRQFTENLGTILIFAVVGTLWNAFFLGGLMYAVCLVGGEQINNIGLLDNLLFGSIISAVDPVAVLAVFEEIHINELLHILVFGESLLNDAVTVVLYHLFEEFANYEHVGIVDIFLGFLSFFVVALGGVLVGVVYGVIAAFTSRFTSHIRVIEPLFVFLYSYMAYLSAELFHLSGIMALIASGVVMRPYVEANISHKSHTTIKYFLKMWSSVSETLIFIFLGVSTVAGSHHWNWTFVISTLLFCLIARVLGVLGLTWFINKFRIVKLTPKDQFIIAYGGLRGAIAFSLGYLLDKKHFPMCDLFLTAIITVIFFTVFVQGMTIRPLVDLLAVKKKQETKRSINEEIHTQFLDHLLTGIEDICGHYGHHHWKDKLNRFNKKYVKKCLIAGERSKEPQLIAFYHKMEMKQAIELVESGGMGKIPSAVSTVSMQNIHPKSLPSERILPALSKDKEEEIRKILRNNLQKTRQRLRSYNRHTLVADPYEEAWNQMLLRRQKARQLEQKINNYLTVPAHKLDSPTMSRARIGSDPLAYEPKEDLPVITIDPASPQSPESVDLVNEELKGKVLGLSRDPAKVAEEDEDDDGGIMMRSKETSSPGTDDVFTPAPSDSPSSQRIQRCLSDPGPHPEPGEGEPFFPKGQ

[18] = target: T4, Monocarboxylate transporter 4; remark: listed apart in the source
[19] = target: T3, Monocarboxylate transporter 1; remark: listed apart in the source
[20] = target: 72 kDa type IV collagenase (Homo sapiens, UniProt P08253); test: Inhibition of MMP2 (unknown origin)
72 kDa type IV collagenase, sequence (P08253 whole entry): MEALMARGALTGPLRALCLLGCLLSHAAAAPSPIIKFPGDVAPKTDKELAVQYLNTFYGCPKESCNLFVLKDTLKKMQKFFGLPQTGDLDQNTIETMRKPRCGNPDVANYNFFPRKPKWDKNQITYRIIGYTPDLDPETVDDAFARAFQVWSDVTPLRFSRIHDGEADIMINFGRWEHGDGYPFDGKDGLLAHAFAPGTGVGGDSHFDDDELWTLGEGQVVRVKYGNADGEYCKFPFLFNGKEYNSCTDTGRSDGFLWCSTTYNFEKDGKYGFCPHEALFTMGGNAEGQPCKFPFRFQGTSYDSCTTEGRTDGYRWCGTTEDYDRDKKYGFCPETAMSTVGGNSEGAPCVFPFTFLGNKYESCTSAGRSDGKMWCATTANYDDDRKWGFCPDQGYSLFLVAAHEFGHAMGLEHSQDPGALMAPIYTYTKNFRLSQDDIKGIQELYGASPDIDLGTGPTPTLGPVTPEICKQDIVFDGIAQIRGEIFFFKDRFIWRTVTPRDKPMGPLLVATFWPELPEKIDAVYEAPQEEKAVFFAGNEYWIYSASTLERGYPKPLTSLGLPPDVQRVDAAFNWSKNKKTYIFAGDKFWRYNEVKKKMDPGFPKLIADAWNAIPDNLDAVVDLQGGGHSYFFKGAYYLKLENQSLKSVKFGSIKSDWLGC

Carbonic anhydrase 9 [21] = target: T2, Carbonic anhydrase 9; remark: listed apart in the source
[22] = target: T4, Monocarboxylate transporter 4; remark: listed apart in the source
[23] = target: T3, Monocarboxylate transporter 1; remark: listed apart in the source
MCF7 [24] = test: cells; conditions: Homo sapiens, MCF7, 72 h; remark: listed apart in the source
[25] = target: T3, Monocarboxylate transporter 1; remark: listed apart in the source
[26] = target: T3, Monocarboxylate transporter 1; remark: listed apart in the source
[27] = target: T4, Monocarboxylate transporter 4; remark: listed apart in the source
[28] = target: T3, Monocarboxylate transporter 1; remark: listed apart in the source

Carbonic anhydrase 1, sequence (P00915 whole entry): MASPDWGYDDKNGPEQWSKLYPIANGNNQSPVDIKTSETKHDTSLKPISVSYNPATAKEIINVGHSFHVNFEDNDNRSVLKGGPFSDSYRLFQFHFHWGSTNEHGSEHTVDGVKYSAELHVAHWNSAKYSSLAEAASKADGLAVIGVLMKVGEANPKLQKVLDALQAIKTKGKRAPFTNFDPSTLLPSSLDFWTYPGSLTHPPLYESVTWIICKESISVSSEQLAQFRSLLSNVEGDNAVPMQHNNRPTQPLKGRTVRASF

SMILES: C=C(C)[C@@H]1CC[C@]2(COS(N)(=O)=O)CC[C@]3(C)[C@H](CC[C@@H]4[C@@]5(C)CC[C@H](OC(=O)NCC)C(C)(C)[C@@H]5CC[C@]43C)[C@@H]12
Ki (Carbonic anhydrase 9 [7]): 4.46 nM
IC50 (MCF7 [8]): 10500 nM

SMILES: Nc1nn(C(=O)C23CC4CC(CC(C4)C2)C3)c(N)c1/N=N/c1ccccc1
IC50 (MCF7 [15]): 4680 nM
IC50 (A549): 1550 nM
IC50 (HepG2): 2700 nM
Ki (Carbonic anhydrase 2 [10]): 85.7 nM

SMILES: CC(=O)C(C)/C(C)=N/NC(=O)C12CC3CC(CC(C3)C1)C2 (centres undefined)
IC50 (MCF7 [15]): 8350 nM
IC50 (A549): 4390 nM
IC50 (HepG2): 7820 nM
Ki (Carbonic anhydrase 2 [10]): 256 nM

SMILES: C=C(C)[C@@H]1CC[C@]2(COS(N)(=O)=O)CC[C@]3(C)[C@H](CC[C@@H]4[C@@]5(C)CC[C@H](OC(C)=O)C(C)(C)[C@@H]5CC[C@]43C)[C@@H]12
Ki (Carbonic anhydrase 9 [7]): 1.25 nM
IC50 (MCF7 [8]): 7020 nM
IC50 (MCF7 [16]): 11100 nM

SMILES: Cc1nc(C(=O)N=C(N)N)c(N)nc1N1CCCOCC1
IC50 [17]: 85 nM

SMILES: CC(C)CN(C)c1nc(N)c(C(=O)N=C(N)N)nc1Cl [5-(N-METHYL-N-ISOBUTYL)AMILORIDE]
IC50 [17]: 174 nM

SMILES: CC(C)c1c(C(=O)Nc2ccccc2)c(-c2ccccc2)c(-c2ccc(F)cc2)n1CC[C@@H](O)C[C@@H](O)CC(=O)O [ATORVASTATIN CALCIUM]
IC50 [22]: ~138000 nM
IC50 [23]: > 210000 nM

SMILES: C=C(C)[C@@H]1CC[C@]2(C(=O)O)CC[C@]3(C)[C@H](CC[C@@H]4[C@@]5(C)CC[C@H](O)C(C)(C)[C@@H]5CC[C@]43C)[C@@H]12 [BETULINIC ACID]
IC50 (MCF7 [8]): 14000 nM
IC50 (MCF7 [24]): 16400 nM

SMILES: CCOC(=O)N1CCC(=C2c3ccc(Cl)cc3CCc3cccnc32)CC1 [LORATADINE]
IC50 [22]: > 300000 nM
IC50 [23]: ~100000 nM

SMILES: O=c1cc(-c2ccc(O)c(O)c2)oc2cc(O)cc(O)c12 [LUTEOLIN]
IC50 [26]: 410 nM

SMILES: O=c1c(O)c(-c2ccc(O)cc2O)oc2cc(O)cc(O)c12 [MORIN]
IC50 [26]: 6210 nM

SMILES: CCOC(=O)Oc1c(OC)cc(C(=O)O[C@@H]2C[C@@H]3CN4CCc5c([nH]c6cc(OC)ccc56)[C@H]4C[C@@H]3[C@H](C(=O)OC)[C@H]2OC)cc1OC [SYROSINGOPINE]
IC50 [27]: 40 nM
IC50 [28]: 2500 nM

More lines, now with the values ahead:

Ki (Carbonic anhydrase 2 [1]): 33 nM
IC50 (Carbonic anhydrase 1): 65 nM
Ki (Carbonic anhydrase 9 [2]): 6.5 nM
SMILES: NS(=O)(=O)c1ccc(N=C2C(=O)Nc3ccccc32)cc1

IC50 [3]: 59 nM
SMILES: CN(Cc1ccccc1)c1ccc2cc(C(=O)O)c(=O)oc2c1

IC50 (BT-549): 9.4 µg/mL (≈ 23.7 µM)
IC50 (KB): 8 µg/mL (≈ 20.2 µM)
IC50 (SK-MEL): 9 µg/mL (≈ 22.7 µM)
IC50 (SK-OV-3): > 10 µg/mL
SMILES: COc1cc(/C=C/C(=O)O)ccc1OCc1cn(-c2cccc([N+](=O)[O-])c2)nn1

Ki (Carbonic anhydrase 2 [4]): 204 nM
SMILES: NS(=O)(=O)c1ccc(NCC(=O)N/N=C2\C(=O)N(Cc3ccccc3)c3ccccc32)cc1

IC50 [5]: 85 nM
IC50 [6]: > 50000 nM
SMILES: O=C(Nc1ccccc1C(=O)O)c1cc(S(=O)(=O)c2ccccc2)ccc1Cl

Ki (Carbonic anhydrase 9 [9]): 61.5 nM
Ki (Carbonic anhydrase 2 [10]): > 10000 nM
SMILES: Cc1cccc(N2C(=O)CSC2c2cn(-c3ccccc3)nc2-c2cc3ccccc3oc2=O)c1 (centres undefined)

Ki (Carbonic anhydrase 9 [11]): 27.5 nM
Ki (Carbonic anhydrase 2 [12]): > 10000 nM
Ki (Carbonic anhydrase 2 [13]): > 10000 nM
Ki (Carbonic anhydrase 9 [14]): 27.5 nM
SMILES: CC(C)(O)[C@@H](O)COc1c2occc2cc2ccc(=O)oc12

EC50 (Raji): ≤ 100 nM
SMILES: CC(C)c1cc(=O)c2c(OCCCO)cc(OCc3cccc4ccccc34)cc2o1

Ki (Carbonic anhydrase 9 [11]): 32.2 nM
Ki (Carbonic anhydrase 2 [12]): > 10000 nM
SMILES: Cc1cc(=O)oc2cc(OCCCCCNc3nc4cc(-c5ccccc5)ccc4o3)ccc12

EC50 (Raji): ≤ 100 nM
SMILES: CC(C)c1cc(=O)c2c(OCc3ccccc3CO)cc(OCc3ncccc3C(F)(F)F)cc2o1

IC50 [18]: 0.36 nM
IC50 [19]: 64000 nM
SMILES: CC[C@](C)(OCc1cc(-c2cccc(OC3CC3)c2)n(-c2ccccc2N2CCC2)n1)C(=O)O

IC50 (Carbonic anhydrase 9 [9]): 6220 nM
IC50 [20]: 15000 nM
SMILES: N[C@H](CNC(=O)P(=O)(O)O)CNS(=O)(=O)c1ccc(Oc2ccccc2)cc1

Ki (Carbonic anhydrase 2 [4]): > 10000 nM
Ki (Carbonic anhydrase 9 [21]): 215 nM
SMILES: CC(C)n1nc(C(=O)Nc2ccc3c(c2)C=CS(=O)(=O)O3)c2ccccc21

Ki (Carbonic anhydrase 9 [9]): 8.9 nM
Ki (Carbonic anhydrase 2 [10]): 44 nM
SMILES: NS(=O)(=O)c1ccc(CN/C=C/C(=O)/C=C/c2cc3ccccc3oc2=O)cc1

Ki (Carbonic anhydrase 9 [11]): 625 nM
Ki (Carbonic anhydrase 2 [12]): > 100000 nM
SMILES: CC(=O)c1ccc(-c2cc3ccccc3oc2=O)nc1C

EC50 (Raji): ≤ 100 nM
SMILES: CC(C)c1cc(=O)c2c(OCc3ccccc3CO)cc(OCc3ccnc4ccccc34)cc2o1

Ki [25]: > 500000 nM
SMILES: CC(C)(OCc1nn(Cc2ccccc2)c2ccccc12)C(=O)O [BINDARIT]

IC50 [26]: 2570 nM
SMILES: O=C(CCc1ccc(O)cc1)c1c(O)cc(O)cc1O [PHLORETIN]
